Assay results reported in US8309537B2, “Compositions and methods for treating colitis” (Aerpio Therapeutics Inc., priority 2009, dated 2012).
Structures can show the parent of a compound that is named as a salt. Where two headings read alike, the source gives them in different places.

Columns and labels:
[1] = system: Mouse Colon 26 tumor cells; experiment: Xenograft model: Mouse Colon 26 carcinoma in nude mice; assay type: in vivo; conditions: Group 1: 5-FU 10 mg/kg IV once daily for five days alone; Day 27
Procedure: Xenograft Model: Mouse Colon 26 Carcinoma
Nude mice (Harlan Sprague Dawley, Inc., Indianapolis Ind.) were inoculated subcutaneously in the right flank with 0.1 mL of a 0.9% NaCl mixture containing a suspension of Mouse Colon 26 tumor cells (approx. 1×10^6 cells/mouse). Nine days following inoculation, the resulting tumors were measured using vernier calipers and tumor weight was calculated using the formula:
[formula] wherein the width can be taken as the smallest diameter and the length the largest diameter of the tumor. Twenty-four mice having tumors in the range of 75-144 mg were then selected. The mice were randomized into three groups of eight mice each. The body weight of each animal was at taken when the mice were pair-matched on day one and recorded. Body weights were then taken twice weekly thereafter in conjunction with tumor measurements. See Britten C. D. et al., “Enhanced antitumor activity of 6-hydroxymethyl-acylfulvene in combination with irinotecan and 5-fluorouracil in the HT29 human colon tumor xenograft model.” Cancer Res 1999; 59:1049-53, incorporated by reference herein in its entirety.
Beginning on Day 1, 5-fluorouracil (5-FU) was administered intravenously once daily for five days to each animal (Groups 1-3). […] The actual weight of each tumor was recorded.

[2] = Solubility of salts in distilled deionized water (HPLC); assay type: physicochemical
Procedure: The formulator can determine the solubility of the pharmaceutically acceptable salts of the disclosed inhibitors by any method desirable. The following is a non-limiting example of a procedure for evaluating the solubility of a salt of a disclosed inhibitor. A suspension of tert-butyl-{[1-(4-chlorobenzyl)-3-hydroxy-2-oxo-1,2-dihydropyridin-4-yl]methyl}-piperazine-1-carboxylate methanesulfonate (26.6 mg) in distilled deionized water (3.0 mL) is sonicated for 20 min with water bath temperature under 25° C. The suspension is filtered to remove any insoluble salt. The clear filtrate solution (200 μL) is diluted with distilled deionized water (800 μL) and subjected to HPLC analysis. The following are results for the pharmaceutically acceptable salts outlined in Table VII above.

O=c1[nH]cc(F)c(=O)[nH]1 [Compound 5-FU, 5-fluorouracil]
Tumor Wgt. [1]: 1926.9 ± 284.9 mg

CC(C)(C)OC(=O)N1CCN(Cc2ccn(Cc3ccc(Cl)cc3)c(=O)c2O)CC1 [Compound A41, tert-Butyl-{[1-(4-chlorobenzyl)-3-hydroxy-2-oxo-1,2-dihydropyridin-4-yl]methyl}piperazine-1-carboxylate]
Solubility ([2]; distilled deionized water, sonicated 20 min, bath under 25° C., filtrate by HPLC, listed as Free base): ~1 µg/mL

CC(C)(C)OC(=O)N1CCN(Cc2ccn(Cc3ccc(Cl)cc3)c(=O)c2O)CC1 [hydrochloride, tert-butyl-{[1-(4-chlorobenzyl)-3-hydroxy-2-oxo-1,2-dihydropyridin-4-yl]methyl}-piperazine-1-carboxylate]
Solubility [2]: 5900 µg/mL

CC(C)(C)OC(=O)N1CCN(Cc2ccn(Cc3ccc(Cl)cc3)c(=O)c2O)CC1 [p-toluenesulfonate, tert-butyl-{[1-(4-chlorobenzyl)-3-hydroxy-2-oxo-1,2-dihydropyridin-4-yl]methyl}-piperazine-1-carboxylate]
Solubility [2]: 2300 µg/mL
